{"source": "patent US11542240B2", "about": "“STK19 inhibitors for treatment of cancer” (TRUSTEES OF BOSTON UNIVERSITY, priority 2018, dated 2023)", "assay_in_all_cases": "biochemical", "type_in_all_cases": "binding", "key": {"[1]": {"biological_target": "panel of 468 diverse kinases (Homo sapiens, UniProt Q8WXR4)", "details": "MYO3B; 1000 nM; read-out: Percent Control"}, "[2]": {"biological_target": "panel of 468 diverse kinases (Homo sapiens, UniProt O75716)", "details": "STK16; 1000 nM; read-out: Percent Control"}, "[3]": {"biological_target": "panel of 468 diverse kinases (Homo sapiens, UniProt P31749)", "details": "AKT1; 1000 nM; read-out: Percent Control"}, "[4]": {"biological_target": "panel of 468 diverse kinases (Homo sapiens, UniProt Q92918)", "details": "HPK1; 1000 nM; read-out: Percent Control"}, "[5]": {"biological_target": "panel of 468 diverse kinases (Homo sapiens, UniProt Q13546)", "details": "RIPK1; 1000 nM; read-out: Percent Control"}, "[6]": {"biological_target": "panel of 468 diverse kinases (Homo sapiens, UniProt P68400)", "details": "CSNK2A1; 1000 nM; read-out: Percent Control"}, "[7]": {"biological_target": "panel of 468 diverse kinases (Homo sapiens, UniProt P10721, V559D/V654A)", "sequence (P10721 26-976 V559D/V654A limits assumed)": "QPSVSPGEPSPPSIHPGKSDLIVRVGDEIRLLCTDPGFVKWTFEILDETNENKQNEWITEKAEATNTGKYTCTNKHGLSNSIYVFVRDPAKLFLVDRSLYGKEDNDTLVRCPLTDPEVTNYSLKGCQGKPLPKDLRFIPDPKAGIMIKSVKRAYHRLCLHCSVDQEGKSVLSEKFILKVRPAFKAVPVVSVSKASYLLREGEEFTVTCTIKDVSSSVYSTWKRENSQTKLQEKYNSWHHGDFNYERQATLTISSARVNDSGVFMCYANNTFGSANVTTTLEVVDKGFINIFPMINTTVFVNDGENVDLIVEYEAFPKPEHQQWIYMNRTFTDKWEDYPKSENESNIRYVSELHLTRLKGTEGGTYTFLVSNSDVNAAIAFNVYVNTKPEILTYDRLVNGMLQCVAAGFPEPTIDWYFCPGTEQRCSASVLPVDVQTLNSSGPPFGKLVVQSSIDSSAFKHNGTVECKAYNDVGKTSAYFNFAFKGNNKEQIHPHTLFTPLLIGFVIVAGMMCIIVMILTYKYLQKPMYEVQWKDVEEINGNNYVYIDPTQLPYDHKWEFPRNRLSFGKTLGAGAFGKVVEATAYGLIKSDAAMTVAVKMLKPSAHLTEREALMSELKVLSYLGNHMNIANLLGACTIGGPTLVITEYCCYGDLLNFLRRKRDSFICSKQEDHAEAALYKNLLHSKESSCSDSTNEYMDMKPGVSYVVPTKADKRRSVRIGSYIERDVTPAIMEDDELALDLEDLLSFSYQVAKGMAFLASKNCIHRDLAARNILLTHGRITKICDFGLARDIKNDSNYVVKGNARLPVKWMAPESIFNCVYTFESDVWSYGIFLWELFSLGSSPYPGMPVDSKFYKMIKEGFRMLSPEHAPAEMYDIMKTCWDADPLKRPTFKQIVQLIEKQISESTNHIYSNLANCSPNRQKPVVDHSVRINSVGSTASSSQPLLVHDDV", "details": "KIT(V559D,V654A); 1000 nM; read-out: Percent Control"}, "[8]": {"biological_target": "panel of 468 diverse kinases (Homo sapiens, UniProt Q16832)", "sequence (Q16832 22-855 limits assumed)": "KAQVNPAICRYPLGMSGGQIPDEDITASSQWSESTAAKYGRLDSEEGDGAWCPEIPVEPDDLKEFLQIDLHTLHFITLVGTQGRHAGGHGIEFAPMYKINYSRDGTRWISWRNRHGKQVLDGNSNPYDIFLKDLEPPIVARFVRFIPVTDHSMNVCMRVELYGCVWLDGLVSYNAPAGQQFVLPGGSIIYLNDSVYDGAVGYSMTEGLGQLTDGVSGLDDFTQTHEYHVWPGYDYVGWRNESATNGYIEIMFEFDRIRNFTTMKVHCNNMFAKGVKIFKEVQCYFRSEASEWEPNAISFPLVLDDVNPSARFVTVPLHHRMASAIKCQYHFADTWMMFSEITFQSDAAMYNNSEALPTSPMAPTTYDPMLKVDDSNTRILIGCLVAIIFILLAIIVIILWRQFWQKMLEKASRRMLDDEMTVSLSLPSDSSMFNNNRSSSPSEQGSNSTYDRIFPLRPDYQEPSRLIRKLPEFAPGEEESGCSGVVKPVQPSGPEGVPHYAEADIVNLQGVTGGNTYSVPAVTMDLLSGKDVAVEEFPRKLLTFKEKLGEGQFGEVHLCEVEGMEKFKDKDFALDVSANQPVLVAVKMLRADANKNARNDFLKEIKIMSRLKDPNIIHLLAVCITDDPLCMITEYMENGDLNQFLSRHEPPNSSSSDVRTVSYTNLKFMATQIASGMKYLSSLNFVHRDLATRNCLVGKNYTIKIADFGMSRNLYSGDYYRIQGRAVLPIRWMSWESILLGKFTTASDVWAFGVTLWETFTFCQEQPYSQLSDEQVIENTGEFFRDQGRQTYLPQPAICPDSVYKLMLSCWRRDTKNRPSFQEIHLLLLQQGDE", "details": "DDR2; 1000 nM; read-out: Percent Control"}, "[9]": {"biological_target": "panel of 468 diverse kinases (Homo sapiens, UniProt Q16816)", "details": "PHKG1; 1000 nM; read-out: Percent Control"}, "[10]": {"biological_target": "panel of 468 diverse kinases (Homo sapiens, UniProt Q96RR4)", "sequence (Q96RR4 2-588 limits assumed)": "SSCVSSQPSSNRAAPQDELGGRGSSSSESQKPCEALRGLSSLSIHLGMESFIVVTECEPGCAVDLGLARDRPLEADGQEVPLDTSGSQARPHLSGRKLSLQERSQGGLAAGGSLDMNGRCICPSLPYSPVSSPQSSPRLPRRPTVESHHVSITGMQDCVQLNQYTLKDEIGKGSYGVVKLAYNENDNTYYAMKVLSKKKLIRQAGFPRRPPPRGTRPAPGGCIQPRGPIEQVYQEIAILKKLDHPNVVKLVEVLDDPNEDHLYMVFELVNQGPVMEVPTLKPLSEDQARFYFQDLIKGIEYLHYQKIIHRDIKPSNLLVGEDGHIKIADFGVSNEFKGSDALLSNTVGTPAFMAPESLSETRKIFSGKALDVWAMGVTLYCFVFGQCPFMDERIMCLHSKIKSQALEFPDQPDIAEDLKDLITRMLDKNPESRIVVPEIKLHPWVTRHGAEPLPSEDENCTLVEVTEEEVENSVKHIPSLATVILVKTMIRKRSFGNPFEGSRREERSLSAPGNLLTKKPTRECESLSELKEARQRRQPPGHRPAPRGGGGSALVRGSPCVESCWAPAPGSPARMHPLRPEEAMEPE", "details": "CAMKK2; 1000 nM; read-out: Percent Control"}, "[11]": {"biological_target": "panel of 468 diverse kinases (Homo sapiens, UniProt Q9UL54)", "details": "TAOK2; 1000 nM; read-out: Percent Control"}, "[12]": {"biological_target": "panel of 468 diverse kinases (Homo sapiens, UniProt Q86UX6)", "details": "YANK3; 1000 nM; read-out: Percent Control"}, "[13]": {"biological_target": "panel of 468 diverse kinases (Homo sapiens, UniProt P21802)", "sequence (P21802 22-821 limits assumed)": "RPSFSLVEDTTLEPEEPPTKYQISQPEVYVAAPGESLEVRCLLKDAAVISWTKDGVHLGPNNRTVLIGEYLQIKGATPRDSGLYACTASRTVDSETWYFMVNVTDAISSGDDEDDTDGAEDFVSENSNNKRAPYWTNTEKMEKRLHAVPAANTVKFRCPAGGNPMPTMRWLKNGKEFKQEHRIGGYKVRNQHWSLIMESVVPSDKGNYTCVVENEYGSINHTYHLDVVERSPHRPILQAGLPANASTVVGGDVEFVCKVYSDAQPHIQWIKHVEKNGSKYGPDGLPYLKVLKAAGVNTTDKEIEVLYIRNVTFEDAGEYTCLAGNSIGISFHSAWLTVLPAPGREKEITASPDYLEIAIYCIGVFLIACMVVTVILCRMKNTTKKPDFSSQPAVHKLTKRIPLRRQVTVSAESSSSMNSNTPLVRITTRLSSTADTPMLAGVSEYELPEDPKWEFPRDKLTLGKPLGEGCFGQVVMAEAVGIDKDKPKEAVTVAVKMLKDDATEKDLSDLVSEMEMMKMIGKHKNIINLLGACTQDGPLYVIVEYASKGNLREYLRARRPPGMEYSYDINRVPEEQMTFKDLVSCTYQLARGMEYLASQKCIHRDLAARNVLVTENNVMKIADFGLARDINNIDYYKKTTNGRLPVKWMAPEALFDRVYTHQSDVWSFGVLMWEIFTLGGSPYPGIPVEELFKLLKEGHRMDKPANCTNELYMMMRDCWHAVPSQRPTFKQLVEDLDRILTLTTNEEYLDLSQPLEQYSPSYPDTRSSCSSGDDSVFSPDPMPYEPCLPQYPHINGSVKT", "details": "FGFR2; 1000 nM; read-out: Percent Control"}, "[14]": {"biological_target": "panel of 468 diverse kinases (Homo sapiens, UniProt Q15569)", "details": "TESK1; 1000 nM; read-out: Percent Control"}, "[15]": {"biological_target": "panel of 468 diverse kinases (Homo sapiens, UniProt Q9NRP7)", "details": "STK36; 1000 nM; read-out: Percent Control"}, "[16]": {"biological_target": "panel of 468 diverse kinases (Homo sapiens, UniProt P25098)", "details": "GRK2; 1000 nM; read-out: Percent Control"}, "[17]": {"biological_target": "panel of 468 diverse kinases (Homo sapiens, UniProt Q9NQU5)", "details": "PAK6; 1000 nM; read-out: Percent Control"}, "[18]": {"biological_target": "panel of 468 diverse kinases (Homo sapiens, UniProt Q96NX5)", "details": "CAMK1G; 1000 nM; read-out: Percent Control"}, "[19]": {"biological_target": "panel of 468 diverse kinases (Homo sapiens, UniProt Q7KZI7)", "details": "MARK2; 1000 nM; read-out: Percent Control"}, "[20]": {"biological_target": "panel of 468 diverse kinases (Mycobacterium tuberculosis, UniProt P9WI81)", "sequence (P9WI81 2-626 limits assumed)": "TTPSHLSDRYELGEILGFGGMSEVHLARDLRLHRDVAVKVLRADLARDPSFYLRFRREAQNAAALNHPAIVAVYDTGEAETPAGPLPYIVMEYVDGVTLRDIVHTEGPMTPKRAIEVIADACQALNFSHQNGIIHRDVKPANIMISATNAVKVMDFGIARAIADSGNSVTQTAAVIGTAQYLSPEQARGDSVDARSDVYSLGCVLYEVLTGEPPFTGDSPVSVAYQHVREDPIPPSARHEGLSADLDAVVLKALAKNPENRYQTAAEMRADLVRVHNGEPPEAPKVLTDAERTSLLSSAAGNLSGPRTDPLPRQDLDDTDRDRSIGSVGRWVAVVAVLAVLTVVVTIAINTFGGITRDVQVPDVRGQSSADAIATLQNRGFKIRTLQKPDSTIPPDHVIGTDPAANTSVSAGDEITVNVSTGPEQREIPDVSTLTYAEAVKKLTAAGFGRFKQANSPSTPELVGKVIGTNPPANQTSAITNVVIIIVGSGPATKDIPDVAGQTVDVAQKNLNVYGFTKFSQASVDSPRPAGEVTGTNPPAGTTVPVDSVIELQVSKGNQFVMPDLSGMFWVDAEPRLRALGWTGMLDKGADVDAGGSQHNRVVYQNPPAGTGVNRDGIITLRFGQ", "details": "read-out: Percent Control"}, "[21]": {"biological_target": "panel of 468 diverse kinases (Homo sapiens, UniProt Q13470)", "details": "TNK1; 1000 nM; read-out: Percent Control"}, "[22]": {"biological_target": "panel of 468 diverse kinases (Homo sapiens, UniProt P51957)", "details": "NEK4; 1000 nM; read-out: Percent Control"}, "[23]": {"biological_target": "panel of 468 diverse kinases (Homo sapiens, UniProt Q9P286)", "details": "PAK7; 1000 nM; read-out: Percent Control"}, "[24]": {"biological_target": "panel of 468 diverse kinases (Homo sapiens, UniProt Q05397)", "sequence (Q05397 2-1052 limits assumed)": "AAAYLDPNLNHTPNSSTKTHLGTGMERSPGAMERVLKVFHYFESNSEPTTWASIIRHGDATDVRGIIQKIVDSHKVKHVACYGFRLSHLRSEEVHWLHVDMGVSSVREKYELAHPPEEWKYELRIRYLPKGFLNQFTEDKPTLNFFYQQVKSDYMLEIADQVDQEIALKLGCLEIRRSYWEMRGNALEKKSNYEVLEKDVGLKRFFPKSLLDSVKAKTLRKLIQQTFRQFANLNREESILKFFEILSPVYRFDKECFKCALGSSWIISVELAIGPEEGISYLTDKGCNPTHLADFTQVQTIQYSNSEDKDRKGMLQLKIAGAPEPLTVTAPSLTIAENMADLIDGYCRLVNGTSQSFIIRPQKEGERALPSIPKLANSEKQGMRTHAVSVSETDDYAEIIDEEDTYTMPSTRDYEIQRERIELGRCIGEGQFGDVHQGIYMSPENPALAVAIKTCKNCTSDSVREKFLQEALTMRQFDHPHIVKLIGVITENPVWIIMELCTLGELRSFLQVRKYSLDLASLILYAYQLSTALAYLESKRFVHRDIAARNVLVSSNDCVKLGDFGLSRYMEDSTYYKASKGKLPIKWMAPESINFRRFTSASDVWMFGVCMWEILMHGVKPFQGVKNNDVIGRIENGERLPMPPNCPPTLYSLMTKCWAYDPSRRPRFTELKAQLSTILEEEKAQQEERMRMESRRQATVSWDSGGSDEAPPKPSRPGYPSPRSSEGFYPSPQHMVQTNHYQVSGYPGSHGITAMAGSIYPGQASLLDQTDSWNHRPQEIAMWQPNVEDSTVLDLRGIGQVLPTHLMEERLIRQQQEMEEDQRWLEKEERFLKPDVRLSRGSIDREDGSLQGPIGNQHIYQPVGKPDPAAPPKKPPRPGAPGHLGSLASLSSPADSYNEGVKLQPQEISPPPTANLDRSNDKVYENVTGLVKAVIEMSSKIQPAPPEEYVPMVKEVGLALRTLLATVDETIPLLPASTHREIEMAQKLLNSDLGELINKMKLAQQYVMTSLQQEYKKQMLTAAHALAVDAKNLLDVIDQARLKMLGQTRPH", "details": "FAK; 1000 nM; read-out: Percent Control"}, "[25]": {"biological_target": "panel of 468 diverse kinases (Homo sapiens, UniProt Q9UM73, C1156Y)", "details": "ALK(C1156Y); 1000 nM; read-out: Percent Control"}, "[26]": {"biological_target": "panel of 468 diverse kinases (Homo sapiens, UniProt Q9UQB9)", "details": "AURKC; 1000 nM; read-out: Percent Control"}, "[27]": {"biological_target": "panel of 468 diverse kinases (Homo sapiens, UniProt P00519, T315I)", "details": "1000 nM, read-out: Percent Control"}, "[28]": {"biological_target": "panel of 468 diverse kinases (Homo sapiens, UniProt Q7L7X3)", "details": "TAOK1; 1000 nM; read-out: Percent Control"}, "[29]": {"biological_target": "panel of 468 diverse kinases (Homo sapiens, UniProt Q9HAZ1)", "details": "CLK4; 1000 nM; read-out: Percent Control"}, "[30]": {"biological_target": "panel of 468 diverse kinases (Homo sapiens, UniProt P54646)", "details": "AMPK-alpha2; 1000 nM; read-out: Percent Control"}, "[31]": {"biological_target": "panel of 468 diverse kinases (Homo sapiens, UniProt O15075)", "details": "DCAMKL1; 1000 nM; read-out: Percent Control"}}, "note": "Read-outs that look alike come from different tables or passages of the source.", "data": [{"smiles": "COc1cc2nc(NC3CC3)nc(NC3CCN(C(C)C)CC3)c2cc1OC", "note": "[Formula IV]", "values": [{"measurement": "remaining activity at 1 µM", "setting": "[1]", "value": 91, "unit": "%"}, {"measurement": "remaining activity at 1 µM", "setting": "[2]", "value": 83, "unit": "%"}, {"measurement": "remaining activity at 1 µM", "setting": "[3]", "value": 95, "unit": "%"}, {"measurement": "remaining activity at 1 µM", "setting": "[4]", "value": 86, "unit": "%"}, {"measurement": "remaining activity at 1 µM", "setting": "[5]", "value": 87, "unit": "%"}, {"measurement": "remaining activity at 1 µM", "setting": "[6]", "value": 61, "unit": "%"}, {"measurement": "remaining activity at 1 µM", "setting": "[7]", "value": 76, "unit": "%"}, {"measurement": "remaining activity at 1 µM", "setting": "[8]", "value": 66, "unit": "%"}, {"measurement": "remaining activity at 1 µM", "setting": "[9]", "value": 90, "unit": "%"}, {"measurement": "remaining activity at 1 µM", "setting": "[10]", "value": 100, "unit": "%"}, {"measurement": "remaining activity at 1 µM", "setting": "[11]", "value": 87, "unit": "%"}, {"measurement": "remaining activity at 1 µM", "setting": "[12]", "value": 94, "unit": "%"}, {"measurement": "remaining activity at 1 µM", "setting": "[13]", "value": 100, "unit": "%"}, {"measurement": "remaining activity at 1 µM", "setting": "[14]", "value": 100, "unit": "%"}, {"measurement": "remaining activity at 1 µM", "setting": "[15]", "value": 77, "unit": "%"}, {"measurement": "remaining activity at 1 µM", "setting": "[16]", "value": 83, "unit": "%"}, {"measurement": "remaining activity at 1 µM", "setting": "[17]", "value": 91, "unit": "%"}, {"measurement": "remaining activity at 1 µM", "setting": "[18]", "value": 99, "unit": "%"}, {"measurement": "remaining activity at 1 µM", "setting": "[19]", "value": 100, "unit": "%"}, {"measurement": "remaining activity at 1 µM", "setting": "[20]", "value": 62, "unit": "%"}, {"measurement": "remaining activity at 1 µM", "setting": "[21]", "value": 67, "unit": "%"}, {"measurement": "remaining activity at 1 µM", "setting": "[22]", "value": 69, "unit": "%"}, {"measurement": "remaining activity at 1 µM", "setting": "[23]", "value": 92, "unit": "%"}, {"measurement": "remaining activity at 1 µM", "setting": "[24]", "value": 88, "unit": "%"}, {"measurement": "remaining activity at 1 µM", "setting": "[25]", "value": 92, "unit": "%"}, {"measurement": "remaining activity at 1 µM", "setting": "[26]", "value": 100, "unit": "%"}, {"measurement": "remaining activity at 1 µM", "setting": "[27]; ABL1(T315I)-nonphosphorylated", "value": 100, "unit": "%"}, {"measurement": "remaining activity at 1 µM", "setting": "[27]; ABL1(T315I)-phosphorylated", "value": 49, "unit": "%"}, {"measurement": "remaining activity at 1 µM", "setting": "[28]", "value": 100, "unit": "%"}, {"measurement": "remaining activity at 1 µM", "setting": "[29]", "value": 69, "unit": "%"}, {"measurement": "remaining activity at 1 µM", "setting": "[30]", "value": 93, "unit": "%"}, {"measurement": "remaining activity at 1 µM", "setting": "[31]", "value": 53, "unit": "%"}]}]}
